Experimental findings from Sander's compilation of Henry's law constants (doi:10.1016/j.watres.2017.04.074) are described below.

The nature of this series: Henry solubility constant Hcp at 298.15 K (mol/(m3 Pa)). The conditions noted are these: reference: Chao et al. (2017).
As to `ClC1=C(Cl)[C@]2(Cl)[C@@H]3[C@@H]4C[C@@H]([C@H]5O[C@@H]45)[C@@H]3[C@@]1(Cl)C2(Cl)Cl` [dieldrin], the “Henry solubility constant Hcp” value was determined as 0.65.

As for `CN(C)C(=O)Nc1ccc(Cl)c(Cl)c1` [diuron], the “Henry solubility constant Hcp” value turned out to be 35.

`CC1CCCC(O)C1` (stereo unspecified) [3-methylcyclohexanol]: the “Henry solubility constant Hcp” value came to 2.9.

As to `ClC1=C(Cl)[C@]2(Cl)[C@@H]3[C@H]4C[C@H]([C@@H]5O[C@H]45)[C@@H]3[C@@]1(Cl)C2(Cl)Cl` [endrin], the “Henry solubility constant Hcp” value was 1.5.

For the molecule `CCNc1nc(NC(C)C)nc(SC)n1` [ametryn], the “Henry solubility constant Hcp” value turned out to be 21.

As to `ClC1C(Cl)C(Cl)C(Cl)C(Cl)C1Cl` (stereo unspecified) [γ-1,2,3,4,5,6-hexachlorocyclohexane], the “Henry solubility constant Hcp” value was determined as 3.1.

For the molecule `OCc1ccccc1` [(hydroxymethyl)-benzene], the “Henry solubility constant Hcp” value turned out to be 17.

Regarding `CC(C)CO` [2-methyl-1-propanol], the “Henry solubility constant Hcp” value turned out to be 1.2.

On to `Nc1cccc(Cl)c1` [1-amino-3-chlorobenzene], for which the “Henry solubility constant Hcp” value was 4.7.

Consider `COC(=O)c1ccccc1C(=O)OC` [dimethyl phthalate], for which the “Henry solubility constant Hcp” value was 23.

`ClC1=C(Cl)C2(Cl)C3C4OC4C(Cl)C3C1(Cl)C2(Cl)Cl` (stereo unspecified) [heptachlorepoxide]: the “Henry solubility constant Hcp” value is 0.96.

As for `O=[N+]([O-])c1cccc2ccccc12` [1-nitronaphthalene], the “Henry solubility constant Hcp” value was 4.6.

For the molecule `COP(=S)(OC)Oc1ccc([N+](=O)[O-])cc1` [methylparathion], the “Henry solubility constant Hcp” value came out at 17.

Regarding `CNC(=O)Oc1cccc2c1OC(C)(C)C2` [carbofuran], the “Henry solubility constant Hcp” value was 24.

`Nc1ccccc1` [aminobenzene]: the “Henry solubility constant Hcp” value stood at 4.4.

With `COP(=O)(OC)C(O)C(Cl)(Cl)Cl` (stereo unspecified), the “Henry solubility constant Hcp” value came to 55.

Regarding `O=[N+]([O-])c1ccccc1` [nitrobenzene], the “Henry solubility constant Hcp” value is 0.67.

Turning to `O=[N+]([O-])c1ccccc1O` [2-nitrophenol], the “Henry solubility constant Hcp” value is 9.9.

For `Cc1cccc(N)c1` [3-methylbenzenamine], the “Henry solubility constant Hcp” value turned out to be 3.2.

In the case of `O=[N+]([O-])c1cccc(Cl)c1` [3-chloronitrobenzene], the “Henry solubility constant Hcp” value worked out at 1.4.

In the case of `CCOC(=O)CC(SP(=S)(OC)OC)C(=O)OCC` (stereo unspecified) [malathion], the “Henry solubility constant Hcp” value was determined as 15.

Take `Cc1ccccc1O` [1-hydroxy-2-methylbenzene]: the “Henry solubility constant Hcp” value was determined as 6.5.

In the case of `O=[N+]([O-])c1ccc(Cl)cc1` [4-chloronitrobenzene], the “Henry solubility constant Hcp” value amounted to 1.4.

On to `ClC1=C(Cl)[C@]2(Cl)[C@H]3[C@H]([C@@H]4C=C[C@H]3C4)[C@@]1(Cl)C2(Cl)Cl` [aldrin], for which the “Henry solubility constant Hcp” value is 0.26.

In the case of `Nc1ccccc1Cl` [1-amino-2-chlorobenzene], the “Henry solubility constant Hcp” value stood at 0.78.

For the molecule `O=[N+]([O-])c1ccc(O)c([N+](=O)[O-])c1` [2,4-dinitrophenol], the “Henry solubility constant Hcp” value was 970.

With `Cc1ccccc1N` [2-methylbenzenamine], the “Henry solubility constant Hcp” value was found to be 3.

With `CNC(=O)ON=C(C)SC` [methomyl], the “Henry solubility constant Hcp” value came to 200.

In the case of `Cc1cccc([N+](=O)[O-])c1` [3-nitrotoluene], the “Henry solubility constant Hcp” value was 1.3.

Consider `Clc1ccc(C(c2ccc(Cl)cc2)C(Cl)Cl)cc1` [1,1-dichloro-2,2-bis-(4-chlorophenyl)-ethane], for which the “Henry solubility constant Hcp” value was determined as 0.76.

For the molecule `O=[N+]([O-])c1ccc(O)cc1` [4-nitrophenol], the “Henry solubility constant Hcp” value worked out at 14.
